{"source": "patent US11407741B2", "about": "“Compounds and their use as selective inhibitors of caspase-2” (priority 2017, dated 2022)", "key": {"[1]": {"system": "hippocampal neurons intoxicated with Aβ1-42 oligomers", "test": "Protection against Abeta neurotoxicity in primary hippocampal neurons in microfluidic chambers", "type": "cell-based, mice", "design": "key to Protective effect against Aβ toxicity: +: significant protection against a Aβ-induced cell death, Aβ-induced axonal degeneration, Aβ-induced electrophysiological dysfunction, and/or Aβ-induced synapse loss", "conditions": "for Protective effect against Aβ toxicity: hippocampal cells pre-incubated 1 h, then Aβ1-42 oligomers", "text": "Hippocampus are micro-dissected from E16 embryos of C57B16/J wt mice (Rene Janvier, France) in cold Gey's Balanced Salt Solution (GBSS, Sigma) supplemented with 0.1% glucose (Life technologies).\nDissected structures are digested with papain (20 U/ML in DMEM, Sigma; St. Louis, Mo., USA) and mechanically dissociated in the presence of DNAse. Hippocampal cells are then rinsed and re-suspended in DMEM (Life Technologies, Inc., Gaithersburg, Md., USA) to a final density of 18 million cells/ml in Neurobasal (Life technologies) and Glutamax (0.1% LifeTechnologies) supplemented with B27 (1/50) and penicilline/sptreptomycine 1% (Gibco).\nThis cell suspension is then used to fill the reservoirs of microfluidic chambers, as described (Peyrin et al, 2011 Lab Chips 11(21):3663; Deleglise et al, 2014 Acta Neuropathologica Comm. 2: 145). Microfluidic chips are placed in plastic Petri dishes containing H20-EDTA to prevent evaporation and incubated at 37° C. in a humid 5% CO2 atmosphere. The culture medium is renewed every seven days.\nOligomeric form of Aβ1-42 (Tocris Bioscience, MN, USA), is produced according to Stine W B et al (2003) in J Biol Chem 278, pp 11612-11622 and can be controlled by electron microscopy as in Deleglise B et al. in Acta Neuropathol Commun. 2014; 2: 145).\nBriefly, Aβ1-42 lyophilized peptides are solubilized at 1 mM in 1, 1, 1, 3, 3, 3,-hexafluoro-2-propanol (HFIP, Sigma Aldrich). After 30 min of incubation at RT, HFIP is evaporated for 12 h under chemical hood and peptides are dried for 1 h (with a Speed Vac at 4° C.). Then, 5 mM Aβ peptide stock solutions are obtained by resolubilization at in dimethylsulfoxide (DMSO, Sigma Aldrich). To obtain oligomers, Aβ peptide stock solution is diluted in cold phenol free DMEM-F12 medium (Life Technologies) to a final concentration of 100 μM. The solution is then incubated 24 h at 4° C. Soluble Aβ oligomer fraction is collected from the supernatant after a centrifugation step at 20 000 g (10 min; 4° C.), and stored at −80° C. until use.\nAfter 18 days of culture in micro fluidic chambers, hippocampal cells are pre-incubated for 1 h with compounds of the invention prior diluted in phenol free DMEM-F12 medium or in phenol free DMEM-F12 medium alone as a control solution. Cells are then intoxicated for 3 h to 6 h or 24 h with 10 or 100 nm of Aβ1-42 oligomers (or with phenol free DMEM-F12 medium alone as a control solution). After the intoxication step, cells are fixed in 4% paraformaldehyde (PFA, Sigma; St. Louis, Mo., USA) for 20 min RT, and labelled as explained below to evaluate synapses status, cell death or axonal degeneration.\nBriefly, after the fixation step, cultures cells are washed twice with PBS+Azide 0.1% for 5 min and permeabilized for 10 min with 0.2% Triton X-100 and 0.1% BSA (Bovine Serum Albumin, Sigma) in PBS+Azide 0.1%. Saturation step is then realized by incubating cells during 30 min in PBS+Azide 0.1%+BSA1%. Primary antibodies are then added and the samples incubated at 4° C. overnight in PBS. Afterwards, samples are rinsed twice for 5 min with PBS+Azide 0.1% and further incubated with the corresponding secondary antibody together with phalloidin conjugated to Alexa Fluor 555 for 2 h RT. The chips were then rinsed twice with PBS+Azide 0.1%.\nThe following antibodies are used: rabbit polyclonal anti-MAP-2 (AB5622; 1/400, MILLIPORE), mouse monoclonal Anti-Bassoon SAP7F407; 1:400, Enzo LifeSciences). Species-specific secondary antibodies coupled to Alexa 350, 488 or 500 are used (1/500, Life Technologies, Inc., Gaithersburg, Md., USA). Phalloidin conjugated to Alexa Fluor 555 (1/500, EnzoLifeTechnologies) is used to stain F-actin.\nImages are acquired with an Axio-observer Zl (Zeiss, Germany) fitted with a cooled CCD camera (CoolsnapHQ2, Ropert Scientific). The microscope is controlled with Metamorph and Micro-manager software. Images were analyzed using ImageJ software."}, "Casp-2": {"molecular_target": "T1, Casp-2 (Homo sapiens, UniProt P42575)", "T1 construct": "the Caspase-2 and Caspase-3 are human recombinant active enzymes; purchased Enzo Life ALX-201-057-U100", "T1 sequence (P42575 170-325 limits assumed)": "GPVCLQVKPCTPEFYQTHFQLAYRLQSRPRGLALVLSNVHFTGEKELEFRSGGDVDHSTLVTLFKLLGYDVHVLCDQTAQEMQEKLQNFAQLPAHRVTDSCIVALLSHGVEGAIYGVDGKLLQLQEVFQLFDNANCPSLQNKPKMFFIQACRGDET", "T1 sequence (P42575 348-452 limits assumed)": "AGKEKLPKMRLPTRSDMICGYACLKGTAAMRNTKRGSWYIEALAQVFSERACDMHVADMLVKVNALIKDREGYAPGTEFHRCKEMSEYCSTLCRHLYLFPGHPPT", "test": "Caspase-2 inhibition assay for reversible inhibitors (IC50, Ki, dilution method)", "type": "biochemical", "method": "A preliminary step in the characterization of an inhibitor is the determination of its IC50. The IC50 is the necessary concentration of an inhibitor to decrease the enzyme activity by 50% of its maximum and uninhibited value.\nThe compound, at different concentrations, is incubated with the enzyme and buffer for 30 minutes at 37° C. to allow formation of the Enzyme-Inhibitor complex. The reaction is initiated by addition of buffer and substrate, and then activity is measured over 15 minutes for the determination of initial velocities.\nThe enzyme and the inhibitor (or DMSO as control) are incubated for 30 minutes at 37° C. The complex thus formed is diluted to 100th in the buffer/substrate mixture and then the activity measurement is started over 20 minutes. The initial rate obtained for the DMSO represents the 100% activity and will serve as a reference for the quantification of the residual activity of the enzyme in the presence of the inhibitor.\nThe reaction is started over 20 minutes upon addition of the buffer-substrate mixture.\nInitial velocity values in RFU·min^−1 are reduced to Specific Activity (SA)values (pmol/min/μg enzyme) from an AMC standard range (1 RFU→0.02 pmol).\nThe evolution of the ratio 1/SA as a function of 1/[S] makes it possible to obtain the so-called double-inverse graph of Lineweaver-Burk from equation 4 (eq.4) where Vmaxapp and KMapp are the parameters which vary according to the type inhibition and as a function of inhibitor concentration. The intersection of the lines obtained for increasing inhibitor concentrations makes it possible to distinguish different types of inhibitors.\nA secondary graph, obtained from the values of the slopes of the Lineweaver-Burk plot as a function of the concentration of inhibitor, makes it possible to obtain the value of the Ki. Its value is given by the abscissa point at the origin.\nThe initial velocity V0 is expressed from equation 8 (eq.8), where Vmax is the maximum reaction rate (reached when the enzyme is saturated with substrate), [S] the substrate concentration, KM is the Michaelis-Menten constant (substrate concentration corresponding to Vmax/2), Ki is the dissociation constant which accounts for the affinity of the inhibitor for the enzyme."}}, "note": "Where a SMILES comes first, the peptide text is derived from it. [ ]: non-standard residue; d: D form. The star is where a group is joined. Pro(3S-CH2tBu) = CC(C)(C)C[C@H]1CCN[C@@H]1C(=O)O; X4 = CN(Cc1ccccc1)C(=O)/C=C/C(=O)N(CC(=O)O)N*; X3 = O=C(O)CN(N*)C(=O)COc1c(F)cccc1F; Quinaldoyl = O=C(c1ccc2ccccc2n1)*; X1 = c1ncc(CO*)s1", "data": [{"molecule": "CC(C)[C@H](NC(=O)c1ccc2ccccc2n1)C(=O)N[C@@H](CC(=O)O)C(=O)N[C@H](C(=O)N1CC[C@H](CC(C)(C)C)[C@H]1C(=O)NN(CC(=O)O)C(=O)COc1c(F)cccc1F)C(C)C", "note": "[Compound 4, (S)-4-(((S)-1-((2S,3S)-2-(2-(carboxymethyl)-2-(2-(2,6-difluorophenoxy)acetyl)hydrazinecarbonyl)-3-neopentylpyrrolidin-1-yl)-3-methyl-1-oxobutan-2-yl)amino)-3-((S)-3-methyl-2-(quinoline-2-carboxamido)butanamido)-4-oxobutanoic acid] (Quinaldoyl-VDV[Pro(3S-CH2tBu)]-X3)", "values": [{"measurement": "Protective effect against Aβ toxicity", "setting": "[1]", "result": "+"}]}, {"molecule": "CC(C)[C@H](NC(=O)[C@H](CC(=O)O)NC(=O)C(=O)Nc1ccccc1C(C)(C)C)C(=O)N1CC[C@H](CC(C)(C)C)[C@H]1C(=O)NN(CC(=O)O)C(=O)COc1c(F)cccc1F", "note": "[Compound 6, (S)-3-(2-((2-(tert-butyl)phenyl)amino)-2-oxoacetamido)-4-(((S)-1-((2S,3S)-2-(2-(carboxymethyl)-2-(2-(2,6-difluorophenoxy)acetyl)hydrazinecarbonyl)-3-neopentylpyrrolidin-1-yl)-3-methyl-1-oxobutan-2-yl)amino)-4-oxobutanoic acid]", "values": [{"measurement": "Protective effect against Aβ toxicity", "setting": "[1]", "result": "+"}]}, {"molecule": "CC(C)[C@H](NC(=O)c1ccc2ccccc2n1)C(=O)N[C@@H](CC(=O)O)C(=O)N[C@H](C(=O)N1CC[C@H](CC(C)(C)C)[C@H]1C(=O)N[C@@H](CC(=O)O)C(=O)COc1c(F)cccc1F)C(C)C", "note": "(single isomer, unassigned) [Compound 2 enantiomer a]", "values": [{"measurement": "Synapse protection toward Amyloid beta peptide [1-42] oligomers toxicity (FIG. 1)", "setting": "[1]; pretreated at 0.1 μM or 1 μM, Aβ[1-42] oligomers 10 nM, **p<0.01", "result": "Synapse protection"}]}, {"molecule": "CC(C)[C@H](NC(=O)c1ccc2ccccc2n1)C(=O)N[C@@H](CC(=O)O)C(=O)N[C@H](C(=O)N1CC[C@H](CC(C)(C)C)[C@H]1C(=O)N[C@@H](CC(=O)O)C(=O)OCc1cncs1)C(C)C", "note": "[Compound 3, (S)-4-(((S)-1-((2S,3S)-2-(((S)-3-carboxy-1-oxo-1-(thiazol-5 - ylmethoxy)propan-2-yl)carbamoyl)-3-neopenthylpyrrolidin-1-yl)-3-methyl-1-oxobutan-2-yl)amino)-3-((S)-3-methyl-2-(quinoline-2-carboxamido)butanamido)-4-oxobutanoic acid] (Quinaldoyl-VDV[Pro(3S-CH2tBu)]D-X1)", "values": [{"measurement": "Selectivity Indexes (KiCasp3/KiCasp2)", "setting": "Casp-2", "result": ">>1000"}, {"measurement": "potency on Casp-2", "setting": "Casp-2", "result": "still powerful on Casp-2"}, {"measurement": "type of inhibition (reversible), dilution method", "setting": "Casp-2", "result": "reversible inhibitor"}, {"measurement": "Casp-2 selectivity", "setting": "Casp-2; from IC50 on Casp-2 and Caspase-3", "result": "Casp2-selective"}, {"measurement": "Protective effect against Aβ toxicity", "setting": "[1]", "result": "+"}]}, {"molecule": "CC(C)[C@H](NC(=O)c1ccc2ccccc2n1)C(=O)N[C@@H](CC(=O)O)C(=O)N[C@H](C(=O)N1CC[C@H](CC(C)(C)C)[C@H]1C(=O)NN(CC(=O)O)C(=O)/C=C/C(=O)N(C)Cc1ccccc1)C(C)C", "note": "[Compound 5, (S)-4-(((S)-1-((2S,3S)-2-(2-((E)-4-(benzyl(methyl)amino)-4-oxobut-2-enoyl)-2-(carboxymethyl)hydrazinecarbonyl)-3-neopentylpyrrolidin-1-yl)-3-methyl-1-oxobutan-2-yl)amino)-3-((S)-3-methyl-2-(quinoline-2-carboxamido)butanamido)-4-oxobutanoic acid] (Quinaldoyl-VDV[Pro(3S-CH2tBu)]-X4)", "values": [{"measurement": "Protective effect against Aβ toxicity", "setting": "[1]", "result": "+"}]}]}
